According to EP0233441A1, “New enzyme inhibitor” (Astra Läkemedel Aktiebolag, priority 1985, dated 1987):

What was measured:
[1] = target: CMP-KDO lipid A transferase (KLT) (Salmonella typhimurium, UniProt Q8ZL49); assay: KLT Assay (incorporation of [14-C]-labelled CMP-KDO into acid-insoluble product; CMP-KDO generated in situ by added CKS); format: biochemical; details: percent of a control without inhibitor, read-out: Percentage of inhibition of KLT
Description: (§1) Potential inhibitors were tested for inhibitory action against two key enzymes involved in the biosynthesis of bacterial LPS.
CMP-KDO lipid A transferase (KLT) which transfers CMP-KDO to an intermediate in the biosynthesis of LPS known as lipid A precursor [drawing 21]
The KLT enzyme was purified essentially by the method of Osborne (J.Biol.Chem. 252 (1977) 4895-4903). KLT activity was determined by monitoring the incorporation of [14-C]-labelled CMP-KDO into acid- insoluble product. The radio labelled CMP-KDO was generated in situ from CTP and [14-C]-KDO by the action of added CKS enzyme. The incubation mixture contained CKS enzyme, KLT enzyme, 110 mM Tris buffer pH 8.0, 10.6 mM NaCl, 0.5 mM CTP, 0.4%, Alfonic 1012-6 (Trade name), 0.16 mM [14-c] KDO and lipid A precursor. The final reaction volume was 150 µl. The mixture was incubated at 25°C for 15 min., when 50 µl was transferred to a filter paper circle (Munktell No. 5,24 mm.) and then washed copiously with 10% TCA. The radioactivity adsorbed on the paper circle, which represents radiolabelled KDO bound to precursor was determined using liquid scintillation counting.
(§2) Inhibition of CKS and KLT enzymes by compound I is given in Table I. The inhibitory action is expressed in percent of a control without inhibitor run simultaneously.

CMP-KDO synthetase (CKS) = target: T1, CMP-KDO synthetase (CKS) (Escherichia coli, UniProt P04951); assay: CKS Assay (enzyme inhibition); format: biochemical; details: percent of a control without inhibitor, read-out: Percentage of inhibition of CKS
T1 construct: made in house
T1 sequence (P04951 whole entry): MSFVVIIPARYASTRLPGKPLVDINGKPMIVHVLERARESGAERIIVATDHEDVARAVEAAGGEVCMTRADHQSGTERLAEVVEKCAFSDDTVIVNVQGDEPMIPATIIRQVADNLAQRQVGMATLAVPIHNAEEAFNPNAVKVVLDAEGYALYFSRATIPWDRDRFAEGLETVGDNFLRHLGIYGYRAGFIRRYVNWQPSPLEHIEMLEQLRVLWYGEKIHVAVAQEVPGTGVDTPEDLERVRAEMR
Description: as §1
I. CMP-KDO synthetase (CKS) which catalyses the reaction [drawing 20]
The CKS enzyme was prepared essentially as described by Osborne [J-.Biol.Chem. […]] and the enzyme assayed by the method of Ghalambor and Heath (J.Biol.Chem. 241 (1966) 3216-3221).
as §2

CMP-KDO lipid A transferase (KLT), sequence (Q8ZL49 entry or part of it): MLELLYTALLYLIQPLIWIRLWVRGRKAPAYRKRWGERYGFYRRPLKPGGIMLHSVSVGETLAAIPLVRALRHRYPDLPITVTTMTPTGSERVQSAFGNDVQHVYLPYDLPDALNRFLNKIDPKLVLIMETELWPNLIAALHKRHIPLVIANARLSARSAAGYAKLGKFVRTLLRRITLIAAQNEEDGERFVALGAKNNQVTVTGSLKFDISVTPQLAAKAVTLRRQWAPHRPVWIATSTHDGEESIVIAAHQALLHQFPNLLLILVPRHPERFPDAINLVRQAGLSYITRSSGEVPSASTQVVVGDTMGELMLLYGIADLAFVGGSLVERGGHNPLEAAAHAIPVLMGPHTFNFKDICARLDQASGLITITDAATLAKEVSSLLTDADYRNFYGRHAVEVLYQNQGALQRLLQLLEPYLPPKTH

O=C(O)[C@@H]1C[C@@H](O)[C@@H](O)[C@@H]([C@H](O)CO)O1 [compound I, ammonium 2,6-anhydro-3-deoxy-D- -glycero-D -talo-octonate]
inhibition at 0.625 µM ([1]; 0.000625 mM compound): 5% | inhibition at 2.5 µM ([1]; 0.0025 mM compound): 24% | inhibition at 10 µM ([1]; 0.01 mM compound): 57% | inhibition at 40 µM ([1]; 0.04 mM compound): 81% | inhibition at 160 µM ([1]; 0.16 mM compound): 89% | inhibition at 640 µM ([1]; 0.64 mM compound): 98% | inhibition at 2.5 µM (CMP-KDO synthetase (CKS); 0.0025 mM compound): 8% | inhibition at 10 µM (CMP-KDO synthetase (CKS); 0.01 mM compound): 36% | inhibition at 40 µM (CMP-KDO synthetase (CKS); 0.04 mM compound): 68% | inhibition at 160 µM (CMP-KDO synthetase (CKS); 0.16 mM compound): 90% | inhibition at 640 µM (CMP-KDO synthetase (CKS); 0.64 mM compound): 98% | inhibition at 2540 µM (CMP-KDO synthetase (CKS); 2.54 mM compound): 99% | inhibition at 10160 µM (CMP-KDO synthetase (CKS); 10.16 mM compound): 98%
